Laboratory results reported in PMC11025159 (Journal of Translational Medicine, 2024).

Legend:
[1] = test system: HCT-116; test: MTT cell viability assay HCT-116; format: cell-based, human; settings: 48 h
Experimental: (§1) Cell viability was evaluated using an MTT colorimetric assay. Cells were seeded (10^5 cells/mL) in 96-well plates and allowed to grow overnight at 37 ℃ with 5% CO2 in a cell-culture incubator. On the following day, the cells were treated with small molecules at different concentrations (0.2–10 micro-molar) or vehicle (DMSO). Cells were then further incubated for 48 h.

[2] = test system: A549; test: MTT cell viability assay A549; format: cell-based, human; settings: 48 h
Experimental: as §1

[3] = test system: HEK-293; test: MTT cell viability assay HEK-293; format: cell-based, human; settings: read-out: IC50 HEK-293; MTT, 48 h; normal cell line
Experimental: as §1

[4] = biological target: T1, JAK3 (Homo sapiens, UniProt P52333); test: Cell-free kinase assay JAK3; format: biochemical; settings: structure-activity statement
T1 construct: purchased Promega Corporation V3701
T1 sequence (P52333 1-1124): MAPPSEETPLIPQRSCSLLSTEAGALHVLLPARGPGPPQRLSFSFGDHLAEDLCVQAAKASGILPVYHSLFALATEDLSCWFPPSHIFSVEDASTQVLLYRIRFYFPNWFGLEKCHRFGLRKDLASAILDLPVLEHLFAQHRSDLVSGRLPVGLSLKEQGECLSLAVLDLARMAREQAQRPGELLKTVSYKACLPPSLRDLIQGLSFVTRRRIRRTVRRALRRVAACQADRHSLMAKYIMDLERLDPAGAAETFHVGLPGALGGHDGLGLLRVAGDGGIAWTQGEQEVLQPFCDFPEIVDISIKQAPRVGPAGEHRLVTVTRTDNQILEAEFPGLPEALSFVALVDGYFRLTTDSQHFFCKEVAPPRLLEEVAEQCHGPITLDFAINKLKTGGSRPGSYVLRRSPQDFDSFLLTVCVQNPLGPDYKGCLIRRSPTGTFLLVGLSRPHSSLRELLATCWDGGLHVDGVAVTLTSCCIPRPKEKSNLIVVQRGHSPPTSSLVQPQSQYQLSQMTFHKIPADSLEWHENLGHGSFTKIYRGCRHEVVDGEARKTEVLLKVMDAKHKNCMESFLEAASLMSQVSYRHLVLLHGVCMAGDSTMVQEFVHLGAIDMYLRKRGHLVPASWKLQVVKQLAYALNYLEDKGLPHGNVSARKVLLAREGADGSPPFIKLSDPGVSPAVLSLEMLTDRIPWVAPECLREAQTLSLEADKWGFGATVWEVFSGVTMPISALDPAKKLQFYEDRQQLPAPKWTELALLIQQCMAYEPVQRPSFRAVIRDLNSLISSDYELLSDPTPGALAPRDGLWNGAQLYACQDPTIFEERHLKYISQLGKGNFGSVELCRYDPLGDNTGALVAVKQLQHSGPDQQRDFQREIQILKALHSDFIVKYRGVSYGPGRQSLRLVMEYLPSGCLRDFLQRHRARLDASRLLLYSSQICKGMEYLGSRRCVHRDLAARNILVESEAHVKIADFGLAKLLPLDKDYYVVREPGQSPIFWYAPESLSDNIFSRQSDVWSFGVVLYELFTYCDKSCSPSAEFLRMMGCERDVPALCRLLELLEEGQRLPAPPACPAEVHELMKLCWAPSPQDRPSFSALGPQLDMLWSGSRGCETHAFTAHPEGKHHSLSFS
Experimental: The cell-free kinase assays of small molecules were determined by following the manufacturer-recommended protocols. Different concentrations in triplicate were used to determine the IC50 value of the hit molecules (active molecules). For data analysis, GraphPad Prism V9.5 Software and a sigmoidal dose–response (variable slope) equation were used. Each value represents an average of three replicates per concentration.

[5] = test system: Mia PaCa-2; test: MTT cell viability assay Mia PaCa-2; format: cell-based, human; settings: 48 h
Experimental: as §1

[6] = test system: MCF-7; test: MTT cell viability assay MCF-7; format: cell-based, human; settings: 48 h
Experimental: as §1

[7] = test system: Panc-2; test: MTT cell viability assay Panc-2; format: cell-based; settings: 48 h
Experimental: as §1

Fc1ccc(-c2cnc3[nH]cc(-c4ccnc(NCCN5CCOCC5)n4)c3c2)cc1 [MJ10]
IC50 [1]: 5.36 µM | IC50 [2]: 6.99 µM | IC50 [3]: > 100 µM | inhibitory activity against JAK3 in kinase assays and in MTT assays [4]: significant inhibitory activity | IC50 [5]: 6.71 µM | IC50 [6]: 8.61 µM | IC50 [7]: 33.6 µM

Nc1nccc(-c2c[nH]c3ncc(-c4cccc(F)c4)cc23)n1 [MJ07]
IC50 [1]: 6.34 µM | IC50 [2]: 5.55 µM | IC50 [3]: > 100 µM | inhibitory activity against JAK3 in kinase assays and in MTT assays [4]: less active | IC50 [5]: 3.22 µM | IC50 [6]: 1.38 µM | IC50 [7]: 3.12 µM

CSc1ccc(-c2cnc3[nH]cc(-c4ccnc(NC5CC5)n4)c3c2)cc1 [MJ02]
IC50 [1]: 3.12 µM | IC50 [2]: 3.13 µM | IC50 [3]: > 100 µM | inhibitory activity against JAK3 in kinase assays and in MTT assays [4]: significant inhibitory activity | IC50 [5]: 7.1 µM | IC50 [6]: 1.83 µM | IC50 [7]: 4.67 µM

c1cncc(-c2cnc3[nH]cc(-c4ccnc(NCCN5CCOCC5)n4)c3c2)c1 [MJ09]
IC50 [1]: 3.22 µM | IC50 [2]: 5.74 µM | IC50 [3]: > 100 µM | inhibitory activity against JAK3 in kinase assays and in MTT assays [4]: significant inhibitory activity | IC50 [5]: 2.16 µM | IC50 [6]: 11.5 µM | IC50 [7]: 26.3 µM

Clc1ccc(-c2cnc3[nH]cc(-c4ccnc(NC5CC5)n4)c3c2)cc1 [MJ05]
IC50 [1]: 8.72 µM | IC50 [2]: 3.71 µM | IC50 [3]: > 100 µM | inhibitory activity against JAK3 in kinase assays and in MTT assays [4]: significant inhibitory activity | IC50 [5]: 6.59 µM | IC50 [6]: 4.47 µM | IC50 [7]: 7.76 µM

Nc1nccc(-c2c[nH]c3ncc(-c4cccc(C(F)(F)F)c4)cc23)n1 [MJ08]
IC50 [1]: 1.18 µM | IC50 [2]: 5.1 µM | IC50 [3]: > 100 µM | inhibitory activity against JAK3 in kinase assays and in MTT assays [4]: less active | IC50 [5]: 5.38 µM | IC50 [6]: 6.88 µM | IC50 [7]: 19.3 µM

c1coc(-c2cnc3[nH]cc(-c4ccnc(NC5CC5)n4)c3c2)c1 [MJ01]
IC50 [1]: 1.89 µM | IC50 [2]: 0.47 µM | IC50 [3]: > 100 µM | inhibitory activity against JAK3 in kinase assays and in MTT assays [4]: significant inhibitory activity | IC50 [5]: 8.3 µM | IC50 [6]: 1.65 µM | IC50 [7]: 3.16 µM

Fc1cccc(-c2cnc3[nH]cc(-c4ccnc(NC5CC5)n4)c3c2)c1 [MJ06]
IC50 [1]: 1.52 µM | IC50 [2]: 4.31 µM | IC50 [3]: > 100 µM | inhibitory activity against JAK3 in kinase assays and in MTT assays [4]: significant inhibitory activity | IC50 [5]: 3.66 µM | IC50 [6]: 3.31 µM | IC50 [7]: 7.33 µM

CSc1ccccc1-c1cnc2[nH]cc(-c3ccnc(NC4CC4)n3)c2c1 [MJ03]
IC50 [1]: 8.2 µM | IC50 [2]: 2.88 µM | IC50 [3]: > 100 µM | inhibitory activity against JAK3 in kinase assays and in MTT assays [4]: significant inhibitory activity | IC50 [5]: 18.1 µM | IC50 [6]: 10.2 µM | IC50 [7]: 11 µM
